Assay results taken from article PMC4552634, “A New Set of Chemical Starting Points with Plasmodium falciparum Transmission-Blocking Potential for Antimalarial Drug Discovery” (PLoS ONE, 2015).
Like-named read-outs stand apart in the source and are kept apart here.

Tests used:
[1] = test system: P. falciparum stage V gametocytes; assay: Gametocytocidal ATP bioluminescence assay (single point 5 μM and 1 μM, dose-response); format: cell-based, Plasmodium falciparum; settings: for Ratio IC50 HepG2/IC50 P. falciparum: IC50 HepG2 divided by IC50 P. falciparum gametocytes
[2] = test system: luciferase reaction (BacTiter-Glo); assay: Interference assay (inhibition of the BacTiter-Glo luciferase reaction); format: biochemical; design: concentration or dose not given beside the values; settings: ATP interference assay
Description: To discard possible false-positive results, we performed an interference assay in parallel. […] […]. The ATP solution was made by dissolving ATP powder (ATP standard from the ATPlite 1 step assay kit, reference 6016731, Perkin Elmer) in culture medium. The positive control used was the Luciferase Inhibitor I Calbiochem (Merck, 119113) at 100 μM.

[3] = test system: P. falciparum asexual stages; settings: TCAMS data, cited from earlier work
[4] = test system: HepG2 cells; assay: Cytotoxicity in HepG2 cells (intracellular ATP, ATPlite, 48 h); format: cell-based, human; settings: HepG2 cells; IC50 per ratio column head; unit inferred
[5] = P. falciparum gametocytes, average, read-out: IC50 Pf Gametocytes average, IC50 (µM) average
[6] = asexual stages, read-out: IC50 asexual
[7] = sexual stages (gametocytes), dose-response, read-out: IC50 sexual
[8] = Plasmodium falciparum, P. falciparum gametocytes, average, read-out: IC50 Pf Gametocytes average, IC50 (µM) average

Compound | % Control luminiscence [2] | Ratio IC50 HepG2/IC50 P. falciparum [1] | IC50 [1, 5] | IC50 [3, 6] | IC50 [4] | IC50 [1, 7] | IC50 [1, 8] | IC50 ([1]; Plasmodium falciparum, sexual stages (gametocytes), dose-response, read-out: IC50 sexual) | IC50 ([3]; P. falciparum asexual stages, read-out: IC50 (µM) Pf asexual stages)
Cc1cc(F)ccc1-c1nc(NCC(O)CNCCc2ccccc2)nc2c1ccc(=O)n2-c1c(F)cccc1F (stereo not shown) [TCMDC-141784] | 100% | 37 | 0.23 µM | 0.539 µM | 8470 nM |  |  |  | 
Cc1ccc(C(=O)Nc2ccc(Nc3ccnc4cc(-c5ccccn5)ccc34)cc2O)cc1 [TCMDC-138205] | 100% | 6.48 | 0.48 µM | 0.111 µM | 3110 nM |  |  |  | 
N=c1n(Cc2ccc(Cl)cc2)c2ccccc2n1CC(O)c1ccc(Cl)c(Cl)c1 (stereo not shown) [TCMDC-123813] | 99% | 18 | 0.36 µM | 0.677 µM | 6500 nM | 0.357 µM |  |  | 
CS(=O)(=O)CCNCc1nc(-c2ccc3c(=O)[nH]cnc3c2)cs1 [TCMDC-138539] | 98% | 1.57 | 2.68 µM | 1.01 µM | 4200 nM |  |  |  | 
CCc1c(CCNCCCCCCNCCc2ccc([N+](=O)[O-])cc2)ccc(OC)c1OC [TCMDC-132066] | 100% | 12 | 0.54 µM | 0.727 µM | 6670 nM | 0.537 µM |  |  | 
COc1ccc(CNCc2ccc(F)cc2)cc1-c1ccc(S(=O)(=O)NCCN2CCCC2)cc1 [TCMDC-132294] | 98% | 5.36 | 1.21 µM | 1.04 µM | 6500 nM | 1.21 µM |  |  | 
CN1CCC(C(=O)N(Cc2ccc(-c3ccc(CNCCc4ccccc4)cn3)cc2)C2CCN(Cc3ccccc3)CC2)CC1 [TCMDC-141552] | 95% | 10 | 0.9 µM | 0.787 µM | 9270 nM | 0.897 µM |  |  | 
c1cc(C2=NC3CCCCC3N2)ccc1OCCCCCOc1ccc(C2=NC3CCCCC3N2)cc1 (stereo not shown) [TCMDC-137802] | 100% | 13 | 0.28 µM | 0.228 µM | 3740 nM |  |  |  | 
O=C(COc1ccccc1)N(Cc1ccc(-c2ccc(CNC3Cc4ccccc4C3)cc2)cc1)C1CCNCC1 [TCMDC-141450] | 100% | 8 | 0.99 µM | 1.01 µM | 7800 nM | 0.987 µM |  |  | 
c1ccc2c(C3CCN(CCCCOc4ccc5c(c4)CCN(CC4CC4)CC5)CC3)c[nH]c2c1 [TCMDC-136244] | 100% | 10 | 0.71 µM | 0.982 µM | 6810 nM |  |  |  | 
CC(CCCCCC(=O)Nc1ccc(CC(C)NCCc2cccc(Cl)c2)cc1)NCCc1cccc(Cl)c1 (stereo not shown) [TCMDC-139800] | 100% | 7.38 | 0.43 µM | 0.948 µM | 3200 nM | 0.433 µM |  |  | 
O=C(/C=C/c1ccc(Cl)c(Cl)c1)N1CCC(CCN2CCC(c3c[nH]c4cnccc34)CC2)CC1 [TCMDC-140136] | 100% | 36 | 0.2 µM | 0.119 µM | 7210 nM |  |  |  | 
CC(C)CNCc1ccc(-c2ccc(CN(CCCN3CCN(C)CC3)C(=O)/C=C/c3ccccc3)cc2)cc1 [TCMDC-140546] | 100% | 7 | 1 µM | 0.917 µM | 6990 nM | 1 µM |  |  | 
CCc1[nH]nc(C(=O)NC2CCN(CC3(c4ccc(OC)cc4)CCCCC3)CC2)c1C [TCMDC-124840] | 100% |  | > 10 µM | 0.892 µM | > 25000 nM |  |  |  | 
CCOCn1c(-c2ccccc2)cc2c3c(N)nc(N)nc3ccc21 [TCMDC-137979] | 94% | 4.35 | 1.3 µM | 0.186 µM | 5650 nM |  |  |  | 
Cc1ccc(Nc2nc(-c3ccccn3)cs2)nc1 [TCMDC-125854] | 100% |  |  | 0.752 µM |  | 0.159 µM | 0.16 µM |  | 

Now from value to compound, other results behind:

% Control luminiscence [2] | Compound | Ratio IC50 HepG2/IC50 P. falciparum [1] | IC50 [1, 5] | IC50 [3, 6] | IC50 [4] | IC50 [1, 7] | IC50 [1, 8] | IC50 ([1]; Plasmodium falciparum, sexual stages (gametocytes), dose-response, read-out: IC50 sexual) | IC50 ([3]; P. falciparum asexual stages, read-out: IC50 (µM) Pf asexual stages)
95% | COc1ccc(CCNCCCCNCCc2ccc(OC)c3ccccc23)c2ccccc12 [TCMDC-137961] | <0.6 | > 5 µM | 0.453 µM | 3140 nM |  |  |  | 
100% | C=CCNC(CCCCC)c1ccc(OCCOc2ccc(C(CCCCC)NCC=C)cc2)cc1 (stereo not shown) [TCMDC-137483] | 6.41 | 0.91 µM | 0.567 µM | 5800 nM | 0.905 µM |  |  | 
100% | CN1CCN(CCCN(Cc2cccc(-c3cccc(CNC4CCCC4)c3)c2)C(=O)CCC2CCCC2)CC1 [TCMDC-140555] | 9 | 0.81 µM | 0.675 µM | 7500 nM | 0.807 µM |  |  | 
97% | O=C(NCCCCN1CCC(c2ccc3c(c2OCCO)CCCC3)CC1)c1ccc2oc(-c3ccc(C(F)(F)F)cc3)cc2c1 [TCMDC-138771] | 10 | 0.63 µM | 0.34 µM | 6590 nM |  |  |  | 
100% | CN(CCCNCc1cccc2ccccc12)CCCNCc1cccc2ccccc12 [TCMDC-137905] | 25 | 0.23 µM | 0.722 µM | 5720 nM |  |  |  | 
98% | CNCCNc1nccc(N2CCc3ncnc(Nc4ccc(OCc5cccc(F)c5)c(Cl)c4)c3C2)n1 [TCMDC-135478] | 11 | 0.67 µM | 0.197 µM | 7160 nM | 0.665 µM |  |  | 
93% | COC(=O)c1sc(-c2ccc(Cl)cc2)cc1N(CCCN1CCC(N2CCCCC2)CC1)S(=O)(=O)c1ccc(C)cc1 [TCMDC-135561] | 1.3 | 3.36 µM | 0.744 µM | 4370 nM | 3.37 µM |  |  | 
100% | Cc1cc(NCCCCCCNc2cc(C)nc3c(C)cccc23)c2cccc(C)c2n1 [TCMDC-125702] | >7.5 | 3.32 µM | 0.406 µM | > 25000 nM | 3.31 µM |  |  | 
100% | COc1ccc(-c2cnn3ccc(Nc4cc(OC)c(OC)c(OC)c4)nc23)cc1OC [TCMDC-134383] | 8 | 1.62 µM | 0.65 µM | 12900 nM | 1.62 µM |  |  | 
100% | CN1CCN(CCNc2c3ccccc3nc3c2ccc2ccccc23)CC1 [TCMDC-137723] | 17 | 0.39 µM | 0.606 µM | 6600 nM | 0.387 µM |  |  | 
94% | COc1ccc(CNCCc2cccs2)cc1-c1cccc(S(=O)(=O)NCCN2CCCC2)c1 [TCMDC-132479] | 7 | 1.68 µM | 0.877 µM | 11400 nM | 1.68 µM |  |  | 
100% | CN(C)Cc1ccc(-c2cccc(Nc3nccc(NCC(O)c4ccccc4)n3)c2)cc1 (stereo not shown) [TCMDC-136467] | 6.52 | 0.9 µM | 0.373 µM | 5870 nM |  |  |  | 
100% | CN(CCCNCc1ccc2ccccc2c1)CCCNCc1ccc2ccccc2c1 [TCMDC-137908] | 94 | 0.05 µM | 0.391 µM | 4680 nM |  |  |  | 
100% | O=C(Nc1ccc2c(c1)CCCN2S(=O)(=O)c1cccs1)c1cc([N+](=O)[O-])ccc1Cl [TCMDC-125153] | >9 | 2.66 µM | 0.845 µM | > 25000 nM | 2.66 µM |  |  | 
99% | Cc1ccccc1OCC(O)CNC1CCC(NCC(O)COc2ccccc2C)CC1 (stereo not shown) [TCMDC-125142] | 26 | 0.14 µM | 1.19 µM | 3780 nM | 0.144 µM |  |  | 
100% | COc1ccc(C[C@H](N)C(=O)N[C@H]2[C@@H](O)[C@H](n3cnc4c(N(C)C)ncnc43)O[C@@H]2CO)cc1 [TCMDC-123927] | 4 | 0.65 µM | 0.299 µM | 2690 nM | 0.647 µM |  |  | 
100% | COc1cc(NC(=O)c2sc(-c3ccc(Cl)cc3)cc2NC(=O)c2ccncc2)ccc1OCCN1CCCC1 [TCMDC-135398] |  | 0.15 µM | 0.031 µM | 3230 nM |  |  |  | 
98% | Cc1cccc(-c2nc(Nc3ccncc3)c3cc(N(C)C)ccc3n2)n1 [TCMDC-135308] | >9 | 2.66 µM | 0.71 µM | > 25000 nM |  |  |  | 
100% | COc1ccc(-c2cc(-c3ccc(S(C)(=O)=O)cc3)cnc2N)cn1 [TCMDC-133351] |  |  | 0.187 µM |  |  | 1.18 µM | 1.18 µM | 0.19 µM
